Experimental data: ChEMBL document CHEMBL5360657, “Discovery of the TLR7/8 Antagonist MHV370 for Treatment of Systemic Autoimmune Diseases” (ACS Med Chem Lett, 2023)
Converted amounts (≈) assume the structure as drawn.

How the values were obtained:
Toll-like receptor 9 = target: T1, Toll-like receptor 9 (Homo sapiens, UniProt Q9NR96); assay: Antagonist activity at TLR9 in human PBMC cells assessed as reduction in IFN alpha measured after 20 hrs by AlphaLISA assay; format: cell-based
T1 sequence (Q9NR96 whole entry): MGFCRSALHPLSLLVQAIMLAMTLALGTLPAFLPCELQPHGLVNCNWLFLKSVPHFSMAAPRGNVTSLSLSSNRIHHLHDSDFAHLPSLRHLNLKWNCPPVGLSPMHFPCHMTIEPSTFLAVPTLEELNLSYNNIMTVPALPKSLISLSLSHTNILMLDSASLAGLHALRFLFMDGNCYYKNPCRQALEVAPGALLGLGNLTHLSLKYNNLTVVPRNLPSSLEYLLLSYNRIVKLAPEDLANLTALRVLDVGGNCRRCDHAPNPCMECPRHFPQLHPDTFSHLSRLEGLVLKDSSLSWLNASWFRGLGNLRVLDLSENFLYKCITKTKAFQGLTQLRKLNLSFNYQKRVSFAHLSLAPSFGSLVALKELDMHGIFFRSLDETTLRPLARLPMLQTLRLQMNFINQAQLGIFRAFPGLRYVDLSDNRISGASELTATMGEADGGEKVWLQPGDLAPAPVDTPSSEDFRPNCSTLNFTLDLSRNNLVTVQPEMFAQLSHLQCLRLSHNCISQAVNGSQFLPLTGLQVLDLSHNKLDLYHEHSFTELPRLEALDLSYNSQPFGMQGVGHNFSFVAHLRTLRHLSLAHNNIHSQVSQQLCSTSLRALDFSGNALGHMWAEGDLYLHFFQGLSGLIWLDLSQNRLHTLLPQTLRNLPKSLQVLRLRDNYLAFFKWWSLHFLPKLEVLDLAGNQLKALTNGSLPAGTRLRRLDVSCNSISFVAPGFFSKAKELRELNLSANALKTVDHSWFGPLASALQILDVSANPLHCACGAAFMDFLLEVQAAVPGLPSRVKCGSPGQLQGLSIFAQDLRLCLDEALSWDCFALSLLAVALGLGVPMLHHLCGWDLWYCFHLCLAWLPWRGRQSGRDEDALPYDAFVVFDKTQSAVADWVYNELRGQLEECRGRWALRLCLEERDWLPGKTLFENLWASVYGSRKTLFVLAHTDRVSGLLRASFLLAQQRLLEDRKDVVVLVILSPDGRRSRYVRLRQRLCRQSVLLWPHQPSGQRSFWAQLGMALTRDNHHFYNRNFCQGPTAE

[1] = Metabolic stability in rat liver microsomes assessed as intrinsic clearance; format: ADME, Microsome; conditions: read-out: CLH
[2] = Solubility of the compound; format: physicochemical
[3] = target: Voltage-gated inwardly rectifying potassium channel KCNH2 (Homo sapiens, UniProt Q12809); assay: Displacement of [3H]-dofetilite from human ERG (unknown origin); format: toxicity
Toll-like receptor 8 = target: T2, Toll-like receptor 8 (Homo sapiens, UniProt Q9NR97); assay: Antagonist activity at TLR8 in human PBMC cells […] assessed as reduction in IL-6 level measured after 20 hrs by AlphaLISA assay; format: cell-based
T2 sequence (Q9NR97 whole entry): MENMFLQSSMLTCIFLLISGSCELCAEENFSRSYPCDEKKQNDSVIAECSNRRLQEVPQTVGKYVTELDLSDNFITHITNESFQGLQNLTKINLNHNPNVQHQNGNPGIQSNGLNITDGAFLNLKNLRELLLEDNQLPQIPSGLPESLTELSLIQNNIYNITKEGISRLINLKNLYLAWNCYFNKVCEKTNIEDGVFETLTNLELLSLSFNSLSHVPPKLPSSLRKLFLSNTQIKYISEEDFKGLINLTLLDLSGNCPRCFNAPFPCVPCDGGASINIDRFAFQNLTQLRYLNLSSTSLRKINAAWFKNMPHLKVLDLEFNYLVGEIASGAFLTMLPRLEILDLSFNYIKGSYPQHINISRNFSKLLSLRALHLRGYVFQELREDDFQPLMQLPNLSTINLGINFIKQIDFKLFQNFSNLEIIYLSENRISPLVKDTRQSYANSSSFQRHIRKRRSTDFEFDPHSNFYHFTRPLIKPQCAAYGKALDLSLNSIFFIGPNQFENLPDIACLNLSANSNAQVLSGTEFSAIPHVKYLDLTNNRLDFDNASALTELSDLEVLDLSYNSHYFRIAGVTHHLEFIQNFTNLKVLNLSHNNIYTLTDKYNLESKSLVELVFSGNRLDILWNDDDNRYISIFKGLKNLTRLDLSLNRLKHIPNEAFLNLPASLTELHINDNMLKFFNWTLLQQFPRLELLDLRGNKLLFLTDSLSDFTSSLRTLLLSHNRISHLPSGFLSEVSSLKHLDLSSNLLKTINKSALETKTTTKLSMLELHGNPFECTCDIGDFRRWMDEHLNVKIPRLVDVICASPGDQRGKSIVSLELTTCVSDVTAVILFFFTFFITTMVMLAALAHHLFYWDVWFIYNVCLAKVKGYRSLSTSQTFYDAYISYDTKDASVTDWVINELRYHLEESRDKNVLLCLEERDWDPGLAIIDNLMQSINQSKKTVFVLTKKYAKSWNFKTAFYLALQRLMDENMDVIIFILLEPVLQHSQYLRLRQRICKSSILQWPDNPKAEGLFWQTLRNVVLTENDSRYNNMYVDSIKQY

[4] = Permeability of the compound by PAMPA; format: ADME
[5] = Metabolic stability in human liver microsomes assessed as intrinsic clearance; format: ADME, Microsome; conditions: read-out: CLH
[6] = Metabolic stability in mouse liver microsomes assessed as intrinsic clearance; format: ADME, Microsome; conditions: read-out: CLH
Toll-like receptor 7 = target: T3, Toll-like receptor 7 (Homo sapiens, UniProt Q9NYK1); assay: Antagonist activity at TLR7 in human PBMC cells assessed as reduction in IFN alpha measured after 20 hrs by AlphaLISA assay; format: cell-based
T3 sequence (Q9NYK1 whole entry): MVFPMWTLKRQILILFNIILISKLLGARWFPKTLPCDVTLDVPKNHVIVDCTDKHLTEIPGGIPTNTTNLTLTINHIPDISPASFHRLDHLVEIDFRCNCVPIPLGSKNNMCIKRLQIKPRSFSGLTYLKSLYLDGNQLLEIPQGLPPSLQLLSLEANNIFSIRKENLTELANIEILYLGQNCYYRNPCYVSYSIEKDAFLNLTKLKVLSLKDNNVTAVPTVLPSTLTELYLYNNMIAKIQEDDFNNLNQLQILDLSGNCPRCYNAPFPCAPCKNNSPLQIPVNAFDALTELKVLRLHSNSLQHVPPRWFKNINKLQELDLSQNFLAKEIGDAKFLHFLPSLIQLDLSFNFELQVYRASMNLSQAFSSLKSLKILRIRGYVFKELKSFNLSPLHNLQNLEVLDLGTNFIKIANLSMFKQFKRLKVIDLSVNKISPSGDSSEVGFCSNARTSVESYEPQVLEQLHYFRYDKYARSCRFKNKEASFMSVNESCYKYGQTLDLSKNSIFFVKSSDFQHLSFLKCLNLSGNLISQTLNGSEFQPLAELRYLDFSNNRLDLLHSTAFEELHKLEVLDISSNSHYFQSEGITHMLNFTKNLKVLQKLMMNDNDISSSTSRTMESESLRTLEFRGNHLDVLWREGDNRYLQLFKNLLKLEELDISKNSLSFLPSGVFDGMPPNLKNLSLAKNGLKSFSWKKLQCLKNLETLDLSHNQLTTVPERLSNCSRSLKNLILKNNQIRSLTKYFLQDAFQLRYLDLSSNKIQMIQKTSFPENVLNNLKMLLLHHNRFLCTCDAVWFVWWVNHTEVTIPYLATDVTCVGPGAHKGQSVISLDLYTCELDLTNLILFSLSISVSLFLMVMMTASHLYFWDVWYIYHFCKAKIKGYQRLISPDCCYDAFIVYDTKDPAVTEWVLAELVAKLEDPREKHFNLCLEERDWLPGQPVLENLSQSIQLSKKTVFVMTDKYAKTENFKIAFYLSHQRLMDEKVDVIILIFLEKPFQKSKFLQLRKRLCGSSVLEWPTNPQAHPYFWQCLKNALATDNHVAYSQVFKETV

Cytochrome P450 3A4 [7] = target: T4, Cytochrome P450 3A4 (Homo sapiens, UniProt P08684); assay: Time dependent inhibition of CYP3A4 (unknown origin) assessed as Kobs; format: ADME
Cytochrome P450 3A4 [8] = target: T4, Cytochrome P450 3A4; assay: Inhibition of CYP3A4 (unknown origin); format: ADME
[9] = MRT in rat at 1 mg/ml, po or iv; format: ADME, organism-based; conditions: in vivo
[10] = Volume of distribution at steady state in mouse at 1 mg/ml, po or iv; format: ADME, organism-based; conditions: in vivo
[11] = Cmax in mouse at 1 mg/ml, po; format: ADME; parameters: dose 1 mg/ml, route po; conditions: in vivo
[12] = AUC in rat at 1 mg/ml, po; format: ADME; parameters: dose 1 mg/ml, route po; conditions: in vivo
[13] = Oral bioavailability in mouse at 1 mg/ml; format: ADME, organism-based; conditions: in vivo
[14] = MRT in mouse at 1 mg/ml, po or iv; format: ADME, organism-based; conditions: in vivo
[15] = AUC in rat at 1 mg/ml, iv; format: ADME; parameters: dose 1 mg/ml, route iv; conditions: in vivo
[16] = Cmax in rat at 1 mg/ml, po; format: ADME; parameters: dose 1 mg/ml, route po; conditions: in vivo
[17] = Volume of distribution at steady state in rat at 1 mg/ml, po or iv; format: ADME, organism-based; conditions: in vivo
[18] = AUC in mouse at 1 mg/ml, iv; format: ADME; parameters: dose 1 mg/ml, route iv; conditions: in vivo
[19] = AUC in mouse at 1 mg/ml, po; format: ADME; parameters: dose 1 mg/ml, route po; conditions: in vivo
[20] = Oral bioavailability in rat at 1 mg/ml; format: ADME, organism-based; conditions: in vivo

T4 sequence (P08684 whole entry): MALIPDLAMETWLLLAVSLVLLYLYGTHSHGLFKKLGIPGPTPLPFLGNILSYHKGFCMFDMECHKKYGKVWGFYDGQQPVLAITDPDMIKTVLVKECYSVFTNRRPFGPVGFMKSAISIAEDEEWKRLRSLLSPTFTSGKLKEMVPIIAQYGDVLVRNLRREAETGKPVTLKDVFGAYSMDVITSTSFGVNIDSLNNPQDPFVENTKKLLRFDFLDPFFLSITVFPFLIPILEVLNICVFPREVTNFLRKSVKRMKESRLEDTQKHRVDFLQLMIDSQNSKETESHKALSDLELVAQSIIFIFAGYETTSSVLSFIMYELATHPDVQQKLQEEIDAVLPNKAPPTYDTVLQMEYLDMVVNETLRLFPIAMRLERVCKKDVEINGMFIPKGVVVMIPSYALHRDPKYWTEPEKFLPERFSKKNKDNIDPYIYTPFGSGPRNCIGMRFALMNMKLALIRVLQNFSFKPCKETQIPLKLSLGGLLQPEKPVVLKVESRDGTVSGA
Chain of Voltage-gated inwardly rectifying potassium channel KCNH2 (Q12809 whole entry): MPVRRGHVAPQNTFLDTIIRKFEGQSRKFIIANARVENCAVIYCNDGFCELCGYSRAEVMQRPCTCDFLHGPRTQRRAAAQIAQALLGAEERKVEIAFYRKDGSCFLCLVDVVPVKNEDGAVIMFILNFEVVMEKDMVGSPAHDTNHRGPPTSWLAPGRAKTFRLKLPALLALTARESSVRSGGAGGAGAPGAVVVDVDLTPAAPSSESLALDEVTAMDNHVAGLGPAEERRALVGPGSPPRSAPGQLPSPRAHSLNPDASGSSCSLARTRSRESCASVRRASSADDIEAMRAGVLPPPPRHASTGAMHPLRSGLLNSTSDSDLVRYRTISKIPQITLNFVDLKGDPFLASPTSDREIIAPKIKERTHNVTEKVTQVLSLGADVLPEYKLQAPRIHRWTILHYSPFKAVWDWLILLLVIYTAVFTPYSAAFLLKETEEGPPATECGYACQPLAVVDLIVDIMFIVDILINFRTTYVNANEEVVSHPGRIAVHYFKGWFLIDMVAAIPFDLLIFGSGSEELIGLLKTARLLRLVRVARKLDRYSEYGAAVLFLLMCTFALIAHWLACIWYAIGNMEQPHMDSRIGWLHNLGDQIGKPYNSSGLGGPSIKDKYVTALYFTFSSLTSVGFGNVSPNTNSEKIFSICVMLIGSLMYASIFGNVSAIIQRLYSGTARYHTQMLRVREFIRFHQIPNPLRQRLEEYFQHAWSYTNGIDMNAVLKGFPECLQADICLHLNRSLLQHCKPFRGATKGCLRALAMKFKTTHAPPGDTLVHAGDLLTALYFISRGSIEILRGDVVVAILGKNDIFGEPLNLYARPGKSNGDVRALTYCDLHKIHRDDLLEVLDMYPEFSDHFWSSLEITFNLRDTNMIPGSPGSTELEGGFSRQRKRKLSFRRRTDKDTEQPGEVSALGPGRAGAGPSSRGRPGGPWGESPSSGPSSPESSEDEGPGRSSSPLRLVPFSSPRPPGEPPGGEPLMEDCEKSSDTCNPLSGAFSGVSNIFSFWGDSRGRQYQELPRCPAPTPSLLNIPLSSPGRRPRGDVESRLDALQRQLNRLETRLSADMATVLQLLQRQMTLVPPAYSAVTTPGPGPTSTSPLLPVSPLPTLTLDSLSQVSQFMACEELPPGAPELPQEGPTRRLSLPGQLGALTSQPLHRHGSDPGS

Structure (SMILES)	IC50 (Toll-like receptor 9) [nM]	microsomal CLint [1] [µL/min/mg]	solubility [2] [µM]	IC50 [3] [nM]	IC50 (Toll-like receptor 8) [nM]	log(permeability) [4]	microsomal CLint [5] [µL/min/mg]	microsomal CLint [6] [µL/min/mg]	IC50 (Toll-like receptor 7) [nM]	Kobs (Cytochrome P450 3A4 [7]) [min⁻¹]	IC50 (Cytochrome P450 3A4 [8]) [nM]	also measured
COCCNC12CCC(Cn3nc(C)c4c3CCN(c3cc(C)nc5c3cnn5C)C4)(CC1)CC2	350	< 15	> 175	22000	50	-4.8	27	< 15	10			
Cc1cc(N2CCc3c(c(C)nn3CC34CCC(N(C)C)(CC3)CC4)C2)c2cnn(C)c2n1	710	36	> 175	> 30000	160	-4.6	34	33	9	0.032	> 50000	
CNC12CCC(Cn3nc(C)c4c3CCN(c3cc(C)nc5c3cnn5C)C4)(CC1)CC2	440	< 15	> 175	> 30000	330	-5.3	< 15	28	7	0.008	> 50000	
Cc1cc(N2CCc3c(c(C)nn3CC34CCC(NC5COC5)(CC3)CC4)C2)c2cnn(C)c2n1	970	67	> 175	> 30000	180	-4.5	57	60	30	0.009	33000	
Cc1cc(N2CCc3c(c(C)nn3CC34CCC(N5CCCC5)(CC3)CC4)C2)c2cnn(C)c2n1	350	55	> 175	11000	85	-4.7	62	24		0.022	18000	
Cc1cc(N2CCc3c(c(C)nn3CC34CCC(NC5CCC5)(CC3)CC4)C2)c2cnn(C)c2n1	550	28	> 175	25000	71	-4.2	52	77		0.037	28000	
Cc1cc(N2CCc3c(c(C)nn3CC34CCC(NS(C)(=O)=O)(CC3)CC4)C2)c2cnn(C)c2n1	> 10000	78	120 (≈ 59.7 µg/mL)	> 30000	> 10000	-4.8	107		8	0.021	> 50000	
Cc1cc(N2CCc3c(c(C)nn3CC34CCC(N5C[C@@H](C)O[C@@H](C)C5)(CC3)CC4)C2)c2cnn(C)c2n1	1500	55	> 175	> 30000	20	-3.9	130	440	10	0.031	> 50000	
CN[C@@H](C)C(=O)NC12CCC(Cn3nc(C)c4c3CCN(c3cc(C)nc5c3cnn5C)C4)(CC1)CC2	700	34		> 30000	190	-5.3	< 15	42		0.022	> 50000	MRT [9]: 1.6 h; Vdss [10]: 3.5 L/kg; Cmax [11]: 237 nM; AUC [12]: 0.483 µM·h; bioavailability [13]: 26%; MRT [14]: 1.6 h; AUC [15]: 1.78 µM·h; Cmax [16]: 31 nM; Vdss [17]: 2 L/kg; AUC [18]: 1.79 µM·h; AUC [19]: 2.34 µM·h; bioavailability [20]: 9%
